Source: US8716249B2, “Compositions and methods for improving cardiovascular health” (Energy Light LLC, priority 2008, dated 2014)
Like-named read-outs stand apart in the source and are kept apart here.

How the values were obtained:
[1] = cited from earlier work
[2] = Comparison of EAA+arginine with fenofibrate in a similar population of elderly (FIG. 2)
[3] = patients with mixed hyperlipidemia, 80 mg atorvostatin daily or 200 mg fenofibrate

CC(C)c1c(C(=O)Nc2ccccc2)c(-c2ccccc2)c(-c2ccc(F)cc2)n1CC[C@@H](O)C[C@@H](O)CC(=O)O [atorvostatin]
reduction of TGs [1, 3]: 65%
reduction of VLDL [1, 3]: 57%

Cc1ccc(C)c(OCCCC(C)(C)C(=O)O)c1 [gemfibrozil]
time to maximal effects on TG ([1]; gemfibrozil treatment): ≤ 4 weeks
decrease of TG concentrations ([1]; patients with hypertryglyceridemia and hypercholesterolemia): 45%
decrease of TG concentrations ([1]; patients with isolated hypercholesterolemia): 38%

CC(C)OC(=O)C(C)(C)Oc1ccc(C(=O)c2ccc(Cl)cc2)cc1 [fenofibrate]
fall of plasma triglyceride concentration ([2]; fenofibrate treatment for 60 days): approximately 33%
effect on liver triglyceride ([2]; treatment for 60 days): no significant effect
